Reference: article PMC11626117 (Proceedings of the National Academy of Sciences of the …, 2024)

Target: CoaX (Rv3600c) (Mycobacterium tuberculosis, UniProt P9WPA1)
Sequence (P9WPA1 whole entry, looked up): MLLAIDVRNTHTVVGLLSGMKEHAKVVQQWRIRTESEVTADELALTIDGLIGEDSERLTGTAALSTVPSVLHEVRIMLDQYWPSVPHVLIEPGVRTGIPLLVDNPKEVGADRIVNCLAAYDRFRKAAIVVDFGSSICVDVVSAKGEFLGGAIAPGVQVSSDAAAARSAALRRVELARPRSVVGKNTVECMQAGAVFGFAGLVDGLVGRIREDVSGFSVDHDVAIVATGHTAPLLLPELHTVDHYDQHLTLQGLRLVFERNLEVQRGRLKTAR

| Structure (SMILES) | thermal shift |
| --- | --- |
| CC(C)(CO)[C@@H](O)C(=O)NCCC(=O)O [pantothenate] | Increasing pantothenate concentration had a subtle effect on CoaX thermostability |
| Nc1ncnc2c1ncn2[C@@H]1O[C@H](COP(=O)(O)OP(=O)(O)OP(O)(O)=S)[C@@H](O)[C@H]1O [ATPγS] | increasing concentrations of ATPγS in the presence of pantothenate had the largest effect |
